Source: patent US20260226076A1, “FUSED MULTICYCLIC COMPOUNDS AND THEIR USE AS PARP1 INHIBITORS” (LAEKNA THERAPEUTICS SHANGHAI CO., LTD., priority 2022, published 2026)

Assays:
PARP1 = PARP1 (Homo sapiens, UniProt P09874); experiment: PARP1-DNA enzymatic trapping assay; type: biochemical; conditions: 10 nM PARP1, 5 nM DNA probe, 2 mM NAD+, fluorescence polarization read at 30 minutes
Description: Enzymatic trapping assay is to measure the dissociation process of PARP1 from fluorescein-labeled DNA during the enzymatic activity. Assay was conducted at a total 10 μL of reaction volume, including 10 nM PARP1 and 5 nM DNA probe in the binding buffer (50 mM Tris-HCl pH 8.0, 50 mM NaCl, 1 mM MgCl2, 0.1 mM EDTA, and 0.01% IGEPAL), and was commenced by adding a final concentration of 2 mM NAD+ substrate.
PARP1 Poly-ADP ribosylation (PARylation) inhibitory assay was conducted with compounds dissolved in DMSO at a starting concentration of 5 μM. Dissolved compounds were added to 384-well microplate and premixed with PARPI enzyme and DNA probe for 20 minutes incubation. Enzymatic reactions were started by adding NAD+ to mixture, and each well was read at 30 minutes by microplate reader (VICTOR Nivo®, PerkinElmer) to detect the fluorescence polarization signal at 480 nm excitation/530 nm dual emission.
All measured IC50 values were calculated using four parameters dose-response inhibition model in GraphPad Prism 8.0.2 (La Jolla, California, USA, www.graphpad.com).

DLD1 BRCA2−/− cells = experiment: Cell proliferation assay (DLD1 BRCA2−/−); type: cell-based; conditions: Homo sapiens, DLD-1, 168 h, at least 7 days, Cell-Titer Glo, read-out: DLD1 BRCA2−/− anti-proliferation assay
Description: (§1) For PARPi sensitivity, exponentially growing MDA-MB-436 and DLD1 BRCA2^−/− cells were seed in 96 or 384-well plates at very low density with the goal of not splitting for at least 7 days (typically 0.3k-1.2k cells/well). Cells were plated on […] and treated with DMSO or increasing concentrations of PARP1 inhibitors on Day 0. At the end of the experiment, cell viability was estimated using Cell-Titer Glo (Promega).

MDA-MB-436 cells = experiment: Cell proliferation assay (MDA-MB-436); type: cell-based; conditions: Homo sapiens, MDA-MB-436, 168 h, at least 7 days, Cell-Titer Glo, read-out: MDA-MB-436 anti-proliferation assay
Description: as §1

PARP2 = PARP2 (Homo sapiens, UniProt Q9UGN5); experiment: PARP2-FL displacement assay; type: binding; conditions: 20 nM PARP2, 3 nM PARPi-FL, 4 hours incubation, fluorescence polarization
Chain of PARP2 (Q9UGN5 whole entry): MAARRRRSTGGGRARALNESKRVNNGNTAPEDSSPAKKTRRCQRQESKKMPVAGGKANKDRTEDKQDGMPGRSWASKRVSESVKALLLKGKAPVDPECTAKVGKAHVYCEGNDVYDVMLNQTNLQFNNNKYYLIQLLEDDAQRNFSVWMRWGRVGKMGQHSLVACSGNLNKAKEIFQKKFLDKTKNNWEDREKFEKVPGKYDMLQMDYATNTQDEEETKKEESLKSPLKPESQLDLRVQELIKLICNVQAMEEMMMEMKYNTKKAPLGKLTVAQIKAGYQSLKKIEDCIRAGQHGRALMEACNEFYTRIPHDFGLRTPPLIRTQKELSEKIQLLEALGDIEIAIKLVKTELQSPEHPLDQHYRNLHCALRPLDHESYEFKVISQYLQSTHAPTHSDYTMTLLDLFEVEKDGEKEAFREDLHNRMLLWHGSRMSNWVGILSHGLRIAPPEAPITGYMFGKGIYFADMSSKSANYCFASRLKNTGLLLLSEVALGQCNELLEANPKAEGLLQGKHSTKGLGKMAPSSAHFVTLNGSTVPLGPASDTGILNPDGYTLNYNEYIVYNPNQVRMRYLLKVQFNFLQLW
Description: A potent PARP inhibitor (PARPi-FL, Cat No. 6461, Tocris Bioscience) conjugated to BDY FL fluorophore was adopted to characterize the activity of PARP2 by measuring the displacement of binding of PARPi-FL to PARP2. Compounds to be tested were prepared at a concentration of 1-10 mM, and made a 3-fold serial dilution by 100% DMSO in a polypropylene plate (Bio-One small volume microplate, black, Cat No. 784076, Greiner). 100 nL of test compounds were dispensed into a 384-well polypropylene microplate and added 10 μL of reaction solution including premixed 20 nM PARP2 and 3 nM PARPi-FL. After 4 hours of incubation at room temperature, the fluorescence polarization signal at 480/30 nm excitation and 530/30 nm dual emission was measured by VICTOR Nivo® multimode plate reader (PerkinElmer). All of the measured IC50 values were calculated using four parameters dose-response inhibition model in GraphPad Prism 8.0.2 (La Jolla, California, USA, www.graphpad.com).

Chain of PARP1 (P09874 whole entry): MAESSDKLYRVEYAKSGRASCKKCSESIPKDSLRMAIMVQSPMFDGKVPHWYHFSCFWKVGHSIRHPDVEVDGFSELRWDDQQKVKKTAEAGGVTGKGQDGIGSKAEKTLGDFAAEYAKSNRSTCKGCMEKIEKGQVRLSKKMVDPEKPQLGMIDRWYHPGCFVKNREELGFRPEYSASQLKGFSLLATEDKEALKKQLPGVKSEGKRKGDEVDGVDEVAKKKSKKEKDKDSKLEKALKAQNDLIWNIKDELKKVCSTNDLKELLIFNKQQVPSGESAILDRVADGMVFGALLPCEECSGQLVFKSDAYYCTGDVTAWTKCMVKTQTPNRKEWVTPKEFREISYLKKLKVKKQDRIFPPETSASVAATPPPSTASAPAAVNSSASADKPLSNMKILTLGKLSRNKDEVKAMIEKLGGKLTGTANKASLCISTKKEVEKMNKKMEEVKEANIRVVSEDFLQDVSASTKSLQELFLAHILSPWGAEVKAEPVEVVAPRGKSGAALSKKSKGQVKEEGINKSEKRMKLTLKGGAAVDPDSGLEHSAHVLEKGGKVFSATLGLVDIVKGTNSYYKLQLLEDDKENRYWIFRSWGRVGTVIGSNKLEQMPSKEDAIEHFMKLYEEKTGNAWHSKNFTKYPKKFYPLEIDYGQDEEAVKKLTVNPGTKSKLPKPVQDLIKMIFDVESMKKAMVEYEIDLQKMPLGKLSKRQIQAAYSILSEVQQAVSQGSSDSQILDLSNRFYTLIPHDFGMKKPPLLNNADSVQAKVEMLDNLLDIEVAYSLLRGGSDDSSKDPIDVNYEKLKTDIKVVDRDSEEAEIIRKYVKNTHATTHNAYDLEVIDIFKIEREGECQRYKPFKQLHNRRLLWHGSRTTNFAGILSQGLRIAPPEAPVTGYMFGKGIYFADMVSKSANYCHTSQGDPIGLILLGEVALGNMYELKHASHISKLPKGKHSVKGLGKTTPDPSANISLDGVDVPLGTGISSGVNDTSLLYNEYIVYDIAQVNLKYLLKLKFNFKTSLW

For CNC(=O)c1ccc(N2C[C@H]3CN(Cc4ccc5c6c(c(=O)[nH]c5c4)COCC6)C[C@@H]3C2)cn1 [Compound 65], which IC50 (PARP1) is on record?
Its IC50 is 6.22 nM.

And the IC50 (DLD1 BRCA2−/− cells)?
Its IC50 is 0.63 nM.

And the IC50 (MDA-MB-436 cells)?
Its IC50 is 0.36 nM.

What about the IC50 (PARP2) of the same compound?
The IC50 was 334 nM.

What does the source list for CNC(=O)c1ccc(N2C[C@H]3CN(Cc4ccc5c6c(c(=O)[nH]c5c4)COCC6)C[C@@H]3C2)c(F)n1 [Compound 66]?
IC50 (PARP1): 4.87 nM; IC50 (DLD1 BRCA2−/− cells): 0.52 nM; IC50 (MDA-MB-436 cells): 0.12 nM; IC50 (PARP2): 219 nM

What does the source list for COCCNC(=O)c1ccc(N2C[C@H]3CN(Cc4ccc5c6c(c(=O)[nH]c5c4)COCC6)C[C@@H]3C2)c(F)n1 [Compound 67]?
IC50 (PARP1): 10.4 nM; IC50 (DLD1 BRCA2−/− cells): 2.16 nM; IC50 (MDA-MB-436 cells): 0.64 nM

How did the IC50 (PARP1) turn out when COCCNC(=O)c1ccc(N2C[C@H]3CN(Cc4ccc5c6c(c(=O)[nH]c5c4)COCC6)C[C@@H]3C2)cn1 [Compound 68] was run?
The IC50 was 14.6 nM.

What about the IC50 (DLD1 BRCA2−/− cells) of the same compound?
The IC50 was 12.3 nM.

And the IC50 (MDA-MB-436 cells)?
Its IC50 is 0.6 nM.

Which IC50 (PARP1) does the source give for O=C(NC1COC1)c1ccc(N2C[C@H]3CN(Cc4ccc5c6c(c(=O)[nH]c5c4)COCC6)C[C@@H]3C2)c(F)n1 [Compound 69] here?
The IC50 was 2.92 nM.

What about the IC50 (DLD1 BRCA2−/− cells) of the same compound?
Its IC50 is 0.81 nM.

And the IC50 (MDA-MB-436 cells)?
The IC50 was 0.24 nM.

And the IC50 (PARP2)?
Its IC50 is 676 nM.

How did the IC50 (PARP1) turn out when CO[C@H]1C[C@@H](NC(=O)c2ccc(N3C[C@H]4CN(Cc5ccc6c7c(c(=O)[nH]c6c5)COCC7)C[C@@H]4C3)c(F)n2)C1 [Compound 70] was run?
The IC50 was 4.2 nM.

And the IC50 (DLD1 BRCA2−/− cells)?
The IC50 was 0.7 nM.

What about the IC50 (MDA-MB-436 cells) of the same compound?
The IC50 was 0.39 nM.

What about the IC50 (PARP2) of the same compound?
The IC50 was 614 nM.

Which results are given for CNC(=O)c1ccc(N2C[C@H]3CN(Cc4cnc5c6c(c(=O)[nH]c5c4)COCC6)C[C@@H]3C2)c(F)n1 [Compound 71]?
IC50 (PARP1): 5.05 nM; IC50 (DLD1 BRCA2−/− cells): 0.44 nM; IC50 (MDA-MB-436 cells): 0.18 nM; IC50 (PARP2): 500 nM

How did the IC50 (PARP1) turn out when CO[C@H]1C[C@H](NC(=O)c2ccc(N3C[C@H]4CN(Cc5cnc6c7c(c(=O)[nH]c6c5)COCC7)C[C@@H]4C3)c(F)n2)C1 [Compound 74] was run?
The IC50 was 8.26 nM.

What about the IC50 (DLD1 BRCA2−/− cells) of the same compound?
The IC50 was 4.98 nM.

And the IC50 (MDA-MB-436 cells)?
Its IC50 is 0.57 nM.

Which IC50 (PARP1) does the source give for CO[C@H]1C[C@@H](NC(=O)c2ccc(N3C[C@H]4CN(Cc5cnc6c7c(c(=O)[nH]c6c5)COCC7)C[C@@H]4C3)cn2)C1 [Compound 75] here?
The IC50 was 8.6 nM.

What about the IC50 (DLD1 BRCA2−/− cells) of the same compound?
The IC50 was 10.2 nM.

And the IC50 (MDA-MB-436 cells)?
The IC50 was 0.93 nM.

What does the source list for CCNC(=O)c1ccc(N2C[C@H]3CN(Cc4cnc5c6c(c(=O)[nH]c5c4)COCC6)C[C@@H]3C2)c(F)n1 [Compound 76]?
IC50 (PARP1): 5.3 nM; IC50 (DLD1 BRCA2−/− cells): 0.7 nM; IC50 (MDA-MB-436 cells): 0.5 nM; IC50 (PARP2): 574 nM

CNC(=O)c1ccc(N2C[C@H]3CN(Cc4cc5[nH]c(=O)c6c(c5cn4)CCOC6)C[C@@H]3C2)c(F)n1 [Compound 77] was tested. Which IC50 (PARP1) did it give?
The IC50 was 7.73 nM.

What about the IC50 (DLD1 BRCA2−/− cells) of the same compound?
The IC50 was 2.7 nM.

And the IC50 (MDA-MB-436 cells)?
The IC50 was 0.41 nM.

And the IC50 (PARP2)?
Its IC50 is 1630 nM.

With CNC(=O)c1ccc(N2C[C@H]3CN(Cc4ccc5c6c(c(=O)[nH]c5c4)CCOC6)C[C@@H]3C2)cn1 [Compound 78] as the compound, how does the IC50 (PARP1) read?
Its IC50 is 26.7 nM.

What about the IC50 (DLD1 BRCA2−/− cells) of the same compound?
The IC50 was 9.14 nM.

What about the IC50 (MDA-MB-436 cells) of the same compound?
Its IC50 is 1.41 nM.

What does the source list for CNC(=O)c1ccc(N2C[C@H]3CN(Cc4cc5[nH]c(=O)c6c(c5cn4)COCC6)C[C@@H]3C2)c(F)n1 [Compound 80]?
IC50 (PARP1): 5.05 nM; IC50 (DLD1 BRCA2−/− cells): 4.75 nM; IC50 (MDA-MB-436 cells): 0.84 nM; IC50 (PARP2): 3880 nM

CNC(=O)c1ccc(N2C[C@H]3CN(Cc4cnc5c6c(c(=O)[nH]c5c4)OCCC6)C[C@@H]3C2)c(F)n1 [Compound 81] was tested. Which IC50 (PARP1) did it give?
The IC50 was 7.6 nM.

What about the IC50 (DLD1 BRCA2−/− cells) of the same compound?
Its IC50 is 4.66 nM.

And the IC50 (MDA-MB-436 cells)?
The IC50 was 1.05 nM.

For CNC(=O)c1ccc(N2C[C@H]3CN(Cc4ccc5c6c(c(=O)[nH]c5c4)OCCC6)C[C@@H]3C2)c(F)n1 [Compound 88], which IC50 (PARP1) is on record?
Its IC50 is 7.9 nM.

And the IC50 (DLD1 BRCA2−/− cells)?
The IC50 was 4.56 nM.

What about the IC50 (MDA-MB-436 cells) of the same compound?
Its IC50 is 1.42 nM.

Which results are given for O=C(NC1COC1)c1ccc(N2C[C@H]3CN(Cc4ccc5c6c(c(=O)[nH]c5c4)OCCC6)C[C@@H]3C2)c(F)n1 [Compound 89]?
IC50 (PARP1): 4.32 nM; IC50 (DLD1 BRCA2−/− cells): 8.28 nM; IC50 (MDA-MB-436 cells): 1.08 nM

With CO[C@H]1C[C@@H](NC(=O)c2ccc(N3C[C@H]4CN(Cc5ccc6c7c(c(=O)[nH]c6c5)OCCC7)C[C@@H]4C3)c(F)n2)C1 [Compound 90] as the compound, how does the IC50 (PARP1) read?
Its IC50 is 5.16 nM.

And the IC50 (DLD1 BRCA2−/− cells)?
Its IC50 is 8.3 nM.

What about the IC50 (MDA-MB-436 cells) of the same compound?
The IC50 was 1.74 nM.
